# What was measured:
# [1] = test system: three-dimensional cultured human skin model (LSE-high, Toyobo Co., Ltd.); assay: Metabolism test by use of cultured human skin; assay type: in vitro ADME; settings: receptor phase PBS pH 7.4, 24 hours, 1.0 mass % in isopropyl myristate, 200 μL applied, 37° C.
# Procedure: A sample of a three-dimensional cultured human skin model (LSE-high, Toyobo Co., Ltd.) was set in a vertical diffusion cell whose temperature was maintained at 37° C., and the receptor phase of the cell was filled with 7 mL isotonic phosphate buffer (PBS, pH 7.4). The cell was allowed to stand for one hour. Each of Inventive Compounds 1 to 3 and enalapril (serving as a Comparative Example) was dissolved or suspended in isopropyl myristate so as to attain a concentration of 1.0 mass %. The solution (200 μL) was applied to the skin sample, whereby the test started. When 24 hours had passed after the test started, the concentrations of proline esters or enalapril (i.e., a prodrug of enalaprilat) which remained unchanged, and the transformed product enalaprilat contained in PBS in the receptor phase were determined through HPLC. From the obtained data, concentration ratio of “proline esters or enalapril”: “enalaprilat” was calculated (presence ratio).
# [2] = Stability test (storage in isopropyl myristate, HPLC peak area ratio); assay type: physicochemical
# Procedure: About 5 mg of each of Inventive Compounds 1 to 5 and enalapril was put in a glass vial. Isopropyl myristate (100 μL) was added, to thereby yield a solution (or suspension). The vial was tightly sealed and stored in a 60° C. thermostatic chamber for one week. Methanol was added to the solution contained in the vial until the total volume of the solution mixture became 100 mL. The resultant solution was employed as a test solution to be subjected to an HPLC analysis. Peak area ratio (expressed by percentage) of each compound with respect to a sum of all the obtained peak areas was calculated.
# [3] = in the skin and in the plasma; cited from earlier work
# [4] = storage at 60° C. for 1 week, HPLC peak area ratio
Compound,Presence ratio: proline ester or enalapril (unchanged) part of concentration ratio [1],"Area ratio: Closed ring product [2, 4]","Area ratio: Enalaprilat [2, 4]","Area ratio: Proline ester compound [2, 4]","Stability on storage (in words) ([2]; 60° C., one week)","Area ratio: Enalapril [2, 4]",Conversion of percutaneously absorbed enalapril to enalaprilat (in words) [3]
"C[C@H](N[C@@H](CCc1ccccc1)C(=O)O)C(=O)N1CCC[C@H]1C(=O)OCCCCO [Inventive Compound 3, 1-[N-[(1S)-1-Carboxy-3-phenylpropyl)-L-alanyl]-L-proline 4-hydroxybutyl ester]",30.4,0.0%,0.0%,94.4%,–,–,–
"C[C@H](N[C@@H](CCc1ccccc1)C(=O)O)C(=O)N1CCC[C@H]1C(=O)OCCCO [Inventive Compound 2, 1-[N-[(1S)-1-Carboxy-3-phenylpropyl]-L-alanyl]-L-proline 3-hydroxypropyl ester]",36.3,0.0%,0.0%,96.7%,–,–,–
"CCOC(=O)[C@H](CCc1ccccc1)N[C@@H](C)C(=O)N1CCC[C@H]1C(=O)O [Enalapril, reference compound]",98.8,48.4%,0.0%,–,completely degraded,0.0%,not converted to enalaprilat

# Further lines, with some results ahead:
Presence ratio: proline ester or enalapril (unchanged) part of concentration ratio [1],"Area ratio: Closed ring product [2, 4]","Area ratio: Enalaprilat [2, 4]","Area ratio: Proline ester compound [2, 4]","Stability on storage (in words) ([2]; 60° C., one week)","Area ratio: Enalapril [2, 4]",Compound,Conversion of percutaneously absorbed enalapril to enalaprilat (in words) [3]
–,0.0%,0.0%,99.1%,–,–,"COCCOC(=O)[C@@H]1CCCN1C(=O)[C@H](C)N[C@@H](CCc1ccccc1)C(=O)O [Inventive Compound 4, 1-[N-[(1S)-1-Carboxy-3-phenylpropyl]-L-alanyl]-L-proline 2-methoxyethyl ester]",–
23.5,0.0%,0.0%,91.8%,–,–,"C[C@H](N[C@@H](CCc1ccccc1)C(=O)O)C(=O)N1CCC[C@H]1C(=O)OCCO [Inventive Compound 1, 1-[N-[(1S)-1-Carboxy-3-phenylpropyl]-L-alanyl]-L-proline 2-hydroxyethyl ester]",–
–,0.0%,0.0%,94.2%,–,–,"COCCOCCOC(=O)[C@@H]1CCCN1C(=O)[C@H](C)N[C@@H](CCc1ccccc1)C(=O)O [Inventive Compound 5, 1-[N-[(1S)-1-Carboxy-3-phenylpropyl]-L-alanyl]-L-proline 2-(2-methoxyethoxy)ethyl ester]",–
